Measurements taken from PubChem BioAssay (NCI).
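Grown in 96-well plates, cells were treated for 48 hours with each compound at five concentrations. Insufficient inhibition: endpoint recorded as highest concentration tested. Abbreviation: GI50, concentration required for 50% inhibition of growth. TGI: concentration producing complete growth inhibition.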

Columns and labels:
Assay in all cases: NCI-60 cell line screen, 48 h
786-0 renal = tested on: 786-0 renal
A498 renal = tested on: A498 renal
A549 NSCLC = tested on: A549 NSCLC
ACHN renal = tested on: ACHN renal
BT-549 breast = tested on: BT-549 breast
CAKI-1 renal = tested on: CAKI-1 renal
CCRF-CEM leukemia = tested on: CCRF-CEM leukemia
COLO 205 colon = tested on: COLO 205 colon
DU-145 prostate = tested on: DU-145 prostate
EKVX NSCLC = tested on: EKVX NSCLC
HCC-2998 colon = tested on: HCC-2998 colon
HCT-116 colon = tested on: HCT-116 colon
HCT-15 colon = tested on: HCT-15 colon
HL-60(TB) leukemia = tested on: HL-60(TB) leukemia
HOP-62 NSCLC = tested on: HOP-62 NSCLC
HOP-92 NSCLC = tested on: HOP-92 NSCLC
HS 578T breast = tested on: HS 578T breast
HT29 colon = tested on: HT29 colon
IGROV1 ovarian = tested on: IGROV1 ovarian
K-562 leukemia = tested on: K-562 leukemia
KM12 colon = tested on: KM12 colon
LOX IMVI melanoma = tested on: LOX IMVI melanoma
M14 melanoma = tested on: M14 melanoma
MALME-3M melanoma = tested on: MALME-3M melanoma
MCF7 breast = tested on: MCF7 breast
MDA-MB-231 breast = tested on: MDA-MB-231 breast
MDA-MB-435 = tested on: MDA-MB-435
MOLT-4 leukemia = tested on: MOLT-4 leukemia
NCI-H226 lung = tested on: NCI-H226 lung
NCI-H23 lung = tested on: NCI-H23 lung
NCI-H460 lung = tested on: NCI-H460 lung
NCI-H522 lung = tested on: NCI-H522 lung
NCI/ADR-RES ovarian = tested on: NCI/ADR-RES ovarian
OVCAR-4 ovarian = tested on: OVCAR-4 ovarian
OVCAR-5 ovarian = tested on: OVCAR-5 ovarian
OVCAR-8 ovarian = tested on: OVCAR-8 ovarian
PC-3 prostate = tested on: PC-3 prostate
RPMI-8226 leukemia = tested on: RPMI-8226 leukemia
RXF 393 renal = tested on: RXF 393 renal
SF-268 CNS = tested on: SF-268 CNS
SF-295 CNS = tested on: SF-295 CNS
SF-539 CNS = tested on: SF-539 CNS
SK-MEL-2 melanoma = tested on: SK-MEL-2 melanoma
SK-MEL-28 melanoma = tested on: SK-MEL-28 melanoma
SK-MEL-5 melanoma = tested on: SK-MEL-5 melanoma
SK-OV-3 ovarian = tested on: SK-OV-3 ovarian
SN12C renal = tested on: SN12C renal
SNB-19 CNS = tested on: SNB-19 CNS
SNB-75 CNS = tested on: SNB-75 CNS
SW-620 colon = tested on: SW-620 colon
T-47D breast = tested on: T-47D breast
TK-10 renal = tested on: TK-10 renal
U251 CNS = tested on: U251 CNS
UACC-257 melanoma = tested on: UACC-257 melanoma
UACC-62 melanoma = tested on: UACC-62 melanoma
UO-31 renal = tested on: UO-31 renal

For `O=C(/C=C/c1csc(Br)n1)NO`, the GI50 (786-0 renal) was 3.38 µM, the TGI (786-0 renal) was 34.7 µM and the GI50 (A498 renal) was 1.34 µM. It also gave a TGI (A498 renal) of 3.21 µM, a GI50 (A549 NSCLC) of 2.45 µM and a TGI (A549 NSCLC) of 8.4 µM. The GI50 (ACHN renal) was 2.36 µM, the TGI (ACHN renal) was 6.99 µM and the GI50 (BT-549 breast) was 3.84 µM. The TGI (BT-549 breast) was 16.5 µM, the GI50 (CAKI-1 renal) was 2.35 µM and the TGI (CAKI-1 renal) was 7.22 µM. The GI50 (CCRF-CEM leukemia) was 2.73 µM, the TGI (CCRF-CEM leukemia) was greater than 100 µM and the GI50 (COLO 205 colon) was 1.75 µM. For the same compound, the TGI (COLO 205 colon) was 3.36 µM, the GI50 (DU-145 prostate) was 3.16 µM and the TGI (DU-145 prostate) was 23.1 µM. For the same compound, the GI50 (EKVX NSCLC) was 4.23 µM, the TGI (EKVX NSCLC) was greater than 100 µM and the GI50 (HCC-2998 colon) was 3.29 µM. The TGI (HCC-2998 colon) was 11.6 µM, the GI50 (HCT-116 colon) was 1.83 µM and the TGI (HCT-116 colon) was 4.51 µM. For the same compound, the GI50 (HCT-15 colon) was 3.17 µM, the TGI (HCT-15 colon) was greater than 100 µM and the GI50 (HL-60(TB) leukemia) was 2.51 µM. The TGI (HL-60(TB) leukemia) was 6.58 µM, the GI50 (HOP-62 NSCLC) was 2.76 µM and the TGI (HOP-62 NSCLC) was 11.5 µM. For the same compound, the GI50 (HOP-92 NSCLC) was 1.3 µM, the TGI (HOP-92 NSCLC) was 3.95 µM and the GI50 (HS 578T breast) was 2.05 µM. It also gave a TGI (HS 578T breast) of 8.66 µM, a GI50 (HT29 colon) of 2.31 µM and a TGI (HT29 colon) greater than 100 µM. It also gave a GI50 (IGROV1 ovarian) of 2.06 µM, a TGI (IGROV1 ovarian) of 5.25 µM and a GI50 (K-562 leukemia) of 2.61 µM. The TGI (K-562 leukemia) was 15.4 µM, the GI50 (KM12 colon) was 3.61 µM and the TGI (KM12 colon) was 39.5 µM. It also gave a GI50 (LOX IMVI melanoma) of 1.31 µM, a TGI (LOX IMVI melanoma) of 2.69 µM and a GI50 (M14 melanoma) of 3.3 µM. For the same compound, the TGI (M14 melanoma) was 17.7 µM, the GI50 (MALME-3M melanoma) was 1.41 µM and the TGI (MALME-3M melanoma) was 8.29 µM. It also gave a GI50 (MCF7 breast) of 3 µM, a TGI (MCF7 breast) of 16.7 µM and a GI50 (MDA-MB-231 breast) of 3.51 µM. The TGI (MDA-MB-231 breast) was 21.2 µM, the GI50 (MDA-MB-435) was 2.88 µM and the TGI (MDA-MB-435) was 15.3 µM. For the same compound, the GI50 (MOLT-4 leukemia) was 2.3 µM, the TGI (MOLT-4 leukemia) was 10.2 µM and the GI50 (NCI-H226 lung) was 5.22 µM. It also gave a TGI (NCI-H226 lung) of 20 µM, a GI50 (NCI-H23 lung) of 3.01 µM and a TGI (NCI-H23 lung) of 10.5 µM. For the same compound, the GI50 (NCI-H460 lung) was 2.81 µM, the TGI (NCI-H460 lung) was 41.5 µM and the GI50 (NCI-H522 lung) was 2.48 µM. For the same compound, the TGI (NCI-H522 lung) was 11.2 µM, the GI50 (NCI/ADR-RES ovarian) was 1.57 µM and the TGI (NCI/ADR-RES ovarian) was 8.36 µM. It also gave a GI50 (OVCAR-4 ovarian) of 6.3 µM, a TGI (OVCAR-4 ovarian) greater than 100 µM and a GI50 (OVCAR-5 ovarian) of 2.25 µM. For the same compound, the TGI (OVCAR-5 ovarian) was greater than 100 µM, the GI50 (OVCAR-8 ovarian) was 2.19 µM and the TGI (OVCAR-8 ovarian) was 8.33 µM. It also gave a GI50 (PC-3 prostate) of 3.17 µM, a TGI (PC-3 prostate) of 17.6 µM and a GI50 (RPMI-8226 leukemia) of 2.64 µM. The TGI (RPMI-8226 leukemia) was 18.8 µM, the GI50 (RXF 393 renal) was 1.43 µM and the TGI (RXF 393 renal) was 3.65 µM. It also gave a GI50 (SF-268 CNS) of 3.22 µM, a TGI (SF-268 CNS) of 9.29 µM and a GI50 (SF-295 CNS) of 2.51 µM. For the same compound, the TGI (SF-295 CNS) was 6.35 µM, the GI50 (SF-539 CNS) was 3.11 µM and the TGI (SF-539 CNS) was 14.8 µM. For the same compound, the GI50 (SK-MEL-2 melanoma) was 2.62 µM, the TGI (SK-MEL-2 melanoma) was 7.26 µM and the GI50 (SK-MEL-28 melanoma) was 3.46 µM. It also gave a TGI (SK-MEL-28 melanoma) greater than 100 µM, a GI50 (SK-MEL-5 melanoma) of 1.82 µM and a TGI (SK-MEL-5 melanoma) of 3.5 µM. For the same compound, the GI50 (SK-OV-3 ovarian) was 1.77 µM, the TGI (SK-OV-3 ovarian) was 5.09 µM and the GI50 (SN12C renal) was 3.84 µM. It also gave a TGI (SN12C renal) greater than 100 µM, a GI50 (SNB-19 CNS) of 3.82 µM and a TGI (SNB-19 CNS) of 88.4 µM. It also gave a GI50 (SNB-75 CNS) of 1.83 µM, a TGI (SNB-75 CNS) of 21 µM and a GI50 (SW-620 colon) of 1.89 µM. The TGI (SW-620 colon) was 5.52 µM, the GI50 (T-47D breast) was 2.03 µM and the TGI (T-47D breast) was 5.63 µM. For the same compound, the GI50 (TK-10 renal) was 1.41 µM, the TGI (TK-10 renal) was 6.18 µM and the GI50 (U251 CNS) was 1.9 µM. For the same compound, the TGI (U251 CNS) was 4.09 µM, the GI50 (UACC-257 melanoma) was 1.31 µM and the TGI (UACC-257 melanoma) was 4.91 µM. For the same compound, the GI50 (UACC-62 melanoma) was 1.25 µM, the TGI (UACC-62 melanoma) was 3.2 µM and the GI50 (UO-31 renal) was 1.7 µM. It also gave a TGI (UO-31 renal) of 4.16 µM.
